Assays:
[1] = design: method as in doi:10.2174/1876388X00901010015; details: cited from earlier work
A3R = target: T1, A3R (Rattus norvegicus, UniProt P28647); test: Small-animal PET in rats: baseline and A3R blocking scans; type: in vivo; details: baseline PET, 60 min
T1 construct: Adult male Sprague-Dawley rats; from tissue; host or cells: living Sprague-Dawley rats, brain volume of interest in PET
T1 sequence (P28647 1-320): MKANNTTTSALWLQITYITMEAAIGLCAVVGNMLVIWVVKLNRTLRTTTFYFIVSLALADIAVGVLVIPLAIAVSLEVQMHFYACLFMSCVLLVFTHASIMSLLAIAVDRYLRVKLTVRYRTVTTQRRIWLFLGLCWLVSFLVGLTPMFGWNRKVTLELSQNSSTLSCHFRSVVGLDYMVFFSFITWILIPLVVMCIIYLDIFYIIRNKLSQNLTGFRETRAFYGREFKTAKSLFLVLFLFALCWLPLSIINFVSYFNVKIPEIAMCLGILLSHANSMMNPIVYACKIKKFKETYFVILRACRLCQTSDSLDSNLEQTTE
Excerpt: A microPET Focus220 scanner (Siemens, Medical Solutions) was used for the experiments. It has 168 detector modules providing a 7.6-cm axial and 22-cm transaxial field of view. The resolution of the reconstructed images (filtered back projection) was 1.3 mm (full-width at half-maximum) in the central field of view and remained under 2 mm within the central 5 cm diameter field of view. For PET imaging two groups of animals (rats and xenografted mice) were investigated. Rats were divided into four groups. The first group received vehicle (dimethyl sulphoxide, DMSO) intravenously via a lateral tail vein 30 min prior to radiotracer administration (three animals, 14.3 – 70.1 MBq, 0.2604 ± 0.06 μg). The second group received MRS1523 – a selective A3R antagonist – at a dose of 2 mg/kg body weight (dissolved in DMSO, 4 mg/mL) intravenously via a tail vein 30 min prior to radiotracer administration (three animals, 18.8 – 59.1 MBq, 0.3443 ± 0.05 μg). The third group received unlabelled title compound FE@SUPPY (dissolved in DMSO, 4 mg/mL) at a dose of 2 mg/kg 30 min before tracer administration (three animals, 9.7 – 16.1 MBq, 0.3926 ± 0.04 μg). In the final study group, the effect of P-glycoprotein inhibition was assessed by intravenous administration of 15 mg/kg TQD (freshly dissolved on each experimental day in 2.5 % aqueous dextrose solution and injected intravenously via a tail vein at a volume of 3 mL/kg over 1 min) 60 min prior to tracer administration (three animals, 13.9 – 26.8 MBq, 0.7451 ± 0.11 μg).
Anaesthetized animals were positioned in the imaging chamber of the microPET scanner, which was kept at 38 °C throughout the experiment. A stereotactic holder attached to the bed, consisting of ear plugs and a tooth bar, was used to fix the animal's head to ensure a reproducible position during the PET studies. [^18F]FE@SUPPY (27.91 ± 13.82 MBq) dissolved in 0.48 ± 0.22 mL phosphate-buffered saline (pH 7.4) was administered as a bolus via a tail vein. Dynamic PET imaging was performed over 60 min in all animals. At the end of the PET scan the animals were killed, a terminal blood sample was collected and whole brains were removed for testing of metabolite stability.
For all PET scans (rats and xenografted mice), list mode data were acquired with an energy window of 350 – 750 keV (rats) or 250 – 750 keV (mice) and a 6-ns timing window. Before each PET scan, a transmission scan using a ^57Co point source was recorded over 10 min. The PET data from the 60-min dynamic scans were sorted into three-dimensional sinograms according to the following frame sequence: 6 × 20 s, 5 × 60 s, 4 × 120 s, 3 × 300 s and 3 × 600 s. For the 90-min scans (in the xenografted mice) the following frame sequence was used: 8 × 5 s, 2 × 10 s, 2 × 30 s, 3 × 60 s, 2 × 150 s, 2 × 300 s, 4 × 600 s and 2 × 900 s. PET images were reconstructed by Fourier rebinning followed by filtered back projection with a ramp filter. The resulting voxel size was 0.6 × 0.6 × 0.8 mm for rats or 0.4 × 0.4 × 0.8 mm for mice. The standard data correction protocol (normalization, attenuation and decay correction) was applied to the data. A calibration factor for converting units of microPET images into absolute radioactivity concentration units was first generated by imaging a phantom filled with a known concentration of [^18F]FDG.
Rat brains were manually outlined on multiple planes of the PET summation images using the image analysis software PMOD 3.1 (Pmod Ltd, Zürich, Switzerland) or Amide. Volumes of interest in the brain or solid tissue mass (xenografts) were transferred to the PET images of the individual time frames and time–activity curves (TACs) expressed in units of kilobecquerels per millilitre were calculated. To facilitate comparison of TACs of different animals, radioactivity concentrations were normalized to dose and weight and expressed as standardized uptake value (SUV, %ID/cm^3 or %ID/g). […]

tracer uptake in fat-rich regions (harderian and lacrimal glands) (A3R): high uptake
tracer uptake in the brain (A3R): low uptake
SMILES: CCSC(=O)c1c(CC)nc(-c2ccccc2)c(C(=O)OCC[18F])c1CC [[^18F]FE@SUPPY, 5-(2-[^18F]fluoroethyl)-2,4-diethyl-3-(ethylsulfanylcarbonyl)-6-phenylpyridine-5-carboxylate]
logP assessment [1]: high lipophilicity
HPLClogD^7.4 ([1]; pH 7.4): 4.04

From PMC4349960, “[^18F]FE@SUPPY: a suitable PET tracer for the adenosine A3 receptor? An in vivo study in rodents” (European Journal of Nuclear Medicine and Molecular Imaging, 2015)
